Each structure is given as a SMILES string. Values after ≈ are worked out from the molar mass of the structure shown. Structures can show the parent of a compound that is named as a salt. Where two headings read alike, the source gives them in different places.

We go through 14 molecules from patent publication US4430342A, “N-Acyl-3-[4-(benzoylalkyl)piperazin-1-yl]-sydnonimine compound, process for prodction thereof, and use thereof” (Hidaka; Hiroyoshi, priority 1981, dated 1984).

Series [1] in a line: solubility in water, dilute hydrochloric acid and Carmody's buffer by absorbance at 317 nm. The format is physicochemical. Conditions: 25° C. How it is done:
The solubility of the N-ethoxycarbonyl-3-[4-(4-benzoylbutyl)piperazin-1-yl]sydnonimine obtained in Example 1 in water dilute hydrochloric acid and the Carmody's buffer was measured by the absorbance of the solution at 317 nm.

The subject of series [2] is extracted heart of a guinea pig. The series is described as follows: coronary blood flow, Langendorf's method, extracted heart. Conditions: 0.1 ml of 10^-4 g/ml solution injected. How it is done: The increase or decrease of the coronary blood flow was examined by the Langendorf's method using the extracted heart of a guinea pig. […] On the other hand, when 0.1 ml of morsydmine (10^-4 g/ml solution) was injected, no increase in the coronary blood flow was observed.

A short description of series [3]: acute toxicity in male dd-strain mice. The conditions noted are these: mouse, in vivo. How it is done: The acute toxicity of the in vivo active type of this typical compound as a prodrug was tested by using male dd-strain mice (body weight 16 to 20 g).
Series [4] can be described thus: water solubility of the salts. The format is physicochemical.
Series [5] has as its system extracted mesenteric artery of a rabbit. The series is described as follows: mesenteric artery relaxing activity, in vitro (extracted artery). Conditions: Oryctolagus cuniculus, read-out: Mesenteric artery relaxing activity (50% of the maximum relaxation). An excerpt: (§1) Table 1 summarizes the results of in vitro tests in which the human platelet aggregation inyibitory activity of the 3-[4-(benzoylalkyl)piperazin-1-yl]sydnonimines of formula (2) and their relaxing activity on the extracted mesenteric artery of a rabbit were examined.
(§2) The mesenteric artery relaxing activity is shown by the […] (μM) of a drug required to induce 50% of the maximum relaxation, and the platelet aggregation inhibiting activity, by the concentration (μM) of a drug required to inhibit collagen-induced platelet aggregation to an extent of 50%.

Series [6] relates to human platelet aggregation. The series is described as follows: collagen-induced human platelet aggregation inhibiting activity, in vitro. The conditions noted are these: human platelets, read-out: Platelet aggregation inhibiting activity (50% inhibition). The format is cell-based.
Text: as §1, §2

Series [7] concerns cerebral cortex. The series is described as follows: blood flow in the cerebral cortex (cross thermocouple method). In kind it is in vivo, rabbit. Conditions: 0.5 mg/kg via retroauricular vein. On the procedure: Male rabbits having a body weight of about 3 kg, five per group, were used. Under sodium pentobarbital anesthesia, a tracheal cannula was inserted into each rabbits, and under artificial respiration, 2 mg of gallamine triethiodide was intravenously injected to immobilize the animals. The animals were each fixed to a brain stereotaxic apparatus (Todai Noken type). An element of the double needle type (WN-301, manufactured by Unique Medical Co.) was inserted into the frontal contex through a hole provided by a dental drill, and variations in potential were recorded. After the blood flow was stabilized, the test drug and a control drug were each administered through a cannula inserted into the retroauricular vein of the right ear. The percent increase in the blood flow was calculated by taking the blood flow at death as 0 and the blood flow before drug administration as 100%. When the compound A (0.5 mg/kg) was administered as the test drug, the blood flow increased by 10 to 20%. But when the control drug, morsydmine, (0.5 mg/kg) was administered, no increase in the blood flow was noted.

For series [8], the system named is amygdaloid nucleus. The series is described as follows: local cerebral blood flow, amygdaloid nucleus (hydrogen gas clearance method). In kind it is in vivo, rabbit. Conditions: 0.5 mg/kg i.v.; until 1 hour after administration; based on blood flow before administration. On the procedure:
(a) Activity on the hippocampus and amygdaloid nucleus (by the hydrogen gas clearance method) Rabbits having a body weight of about 3 kg, five per group, were used. A tracheal cannula was inserted into each rabbit under sodium pentobarbital anesthesia, and under artificial respiration, gallamine triethiodide was intravenously administered in a dose of 2 mg/kg to immobilize it. The animal was then fixed to a brain stereotaxic apparatus (Todai Noken type). Gallamine triethiodide was also intramuscularly administered in a dose of 3 mg/kg every one hour.
The local cerebral blood flow was measured by the hydrogen gas clearance method (UH meter, PHG-201, manufactured by Unique Medical Co., Ltd.). Platinum electrodes having a diameter of 300 μm and coated with an epoxy resin were inserted in the hippocampus (P:4, L:5, H:+5) and the amygdaloid nucleus (A:2, L:6, H:-6) in accordance with the brain atlas of Sawyer et al. An indifferent electrode was placed under the skin of the head and fixed there. […] The resulting curve was plotted semilogarithmically, and the half-time period (T 1/2) was determined by the initial slope method. The blood flow was calculated from the following equation.
The blood flow was measured every thirty minutes. […]

In the case of `CCOC(=O)[N-]c1c[n+](N2CCN(CCCCC(=O)c3ccccc3)CC2)no1` [Compound A, N-carboethoxy-3-[4-(4-benzoylbutyl)piperazin-1-yl]sydnonimine], the solubility was found to be 2300 µg/mL (≈ 5.73 mM) in series [1] (0.001 n hydrochloric acid, 0.001 N (pH 3), read-out: Solubility in dilute hydrochloric acid); 6300 µg/mL (≈ 15.7 mM) in series [1] (0.01 n hydrochloric acid, 0.01 N (pH 2), read-out: Solubility in dilute hydrochloric acid); 10400 µg/mL (≈ 25.9 mM) in series [1] (0.1 n hydrochloric acid, 0.1 N (pH 1), read-out: Solubility in dilute hydrochloric acid); 15600 µg/mL (≈ 38.9 mM) in series [1] (carmody's buffer, pH 2, read-out: Solubility in Carmody's buffer); 9300 µg/mL (≈ 23.2 mM) in series [1] (carmody's buffer, pH 3, read-out: Solubility in Carmody's buffer); 4400 µg/mL (≈ 11 mM) in series [1] (carmody's buffer, pH 4, read-out: Solubility in Carmody's buffer). Also, the solubility in series [1] (carmody's buffer, pH 5, read-out: Solubility in Carmody's buffer) is 1000 µg/mL (≈ 2.49 mM); in series [1] (carmody's buffer, pH 6, read-out: Solubility in Carmody's buffer), 400 µg/mL (≈ 0.996 mM); in series [1] (carmody's buffer, pH 7, read-out: Solubility in Carmody's buffer) it was 100 µg/mL (≈ 0.249 mM); in series [1] (water, read-out: Solubility in water), 10 µg/mL (≈ 0.0249 mM).
`CCOC(=O)[N-]c1c[n+](N2CCN(CCCCC(=O)c3ccccc3)CC2)no1` [Compound A]: the activation at 100 µg/mL in series [2] (Cavia porcellus, read-out: increase in the coronary blood flow) stood at 14%. Besides, the median lethal dose (LD50) in series [3] (intravenous administration) was determined as 91 mg/kg; in series [3] (oral administration), 750 mg/kg; in series [3] (sc, subcutaneous administration), 350 mg/kg.
As for `CCOC(=O)[N-]c1c[n+](N2CCN(CCCCC(=O)c3ccccc3)CC2)no1` [Hydrochloride, N-ethoxycarbonyl-3-[4-(4-benzoylbutyl)-piperazin-1-yl]sydnonimine], the Solubility in water in series [4] is reported as 0.89%.
With `CCOC(=O)[N-]c1c[n+](N2CCN(CCCCC(=O)c3ccccc3)CC2)no1` [Maleate, N-ethoxycarbonyl-3-[4-(4-benzoylbutyl)-piperazin-1-yl]sydnonimine], the Solubility in water in series [4] turned out to be 0.94%.
Take `CCOC(=O)[N-]c1c[n+](N2CCN(CCCCC(=O)c3ccccc3)CC2)no1` [Nitrate, N-ethoxycarbonyl-3-[4-(4-benzoylbutyl)-piperazin-1-yl]sydnonimine]: in series [4], the Solubility in water amounted to 0.43%.
As to `CCOC(=O)[N-]c1c[n+](N2CCN(CCCCC(=O)c3ccccc3)CC2)no1` [Oxalate, N-ethoxycarbonyl-3-[4-(4-benzoylbutyl)-piperazin-1-yl]sydnonimine], the Solubility in water in series [4] turned out to be 0.46%.
Turning to `[NH-]c1c[n+](N2CCN(CC(=O)c3ccccc3)CC2)no1` [R = H, n = 0, 3-[4-(benzoylmethyl)piperazin-1-yl]sydnonimine dihydrochloride], the EC50 in series [5] came out at 160 nM. Moreover, in series [6], the IC50 came out at 140 nM.
`[NH-]c1c[n+](N2CCN(CCCC(=O)c3ccccc3)CC2)no1` [R = H, n = 2]: the EC50 in series [5] was 2300 nM. For the same molecule, the IC50 in series [6] turned out to be 5400 nM.
For the molecule `[NH-]c1c[n+](N2CCN(CCCCC(=O)c3ccccc3)CC2)no1` [R = H, n = 3, 3-[4-(4-benzoylbutyl)piperazin-1-yl]sydnonimine dihydrochloride], the EC50 in series [5] was 200 nM. Also, the IC50 in series [6] was found to be 3400 nM.
On the same counts, the results for `[NH-]c1c[n+](N2CCN(CCCCCC(=O)c3ccccc3)CC2)no1` [R = H, n = 4] are 3000 nM and 6300 nM.
`[NH-]c1c[n+](N2CCN(CCCCCCC(=O)c3ccccc3)CC2)no1` [R = H, n = 5]: in series [5], the EC50 amounted to 120 nM. Further, the IC50 in series [6] turned out to be 940 nM.
For the molecule `[NH-]c1c[n+](N2CCN(CCCCCCCCC(=O)c3ccccc3)CC2)no1` [R = H, n = 7, 3-[4-(8-benzoyloctyl)piperazin-1-yl]sydnonimine dihydrochloride], the EC50 in series [5] came out at 58 nM. The IC50 in series [6] was 28 nM.
In the case of `CC(C)CC(CCCN1CCN([n+]2cc([NH-])on2)CC1)C(=O)c1ccccc1` (stereo not shown) [R = iso-C4 H9, n = 3, 3-[4-(benzoyl-6-methylheptyl)piperazin-1-yl]sydnonimine dihydrochloride], the IC50 in series [6] worked out at 11000 nM.
On to `CCOC(=O)[N-]c1c[n+](N2CCOCC2)no1` [morsydmine], for which the “coronary blood flow, result in words” value in series [2] is recorded as “no increase”. In series [7], the “blood flow in the cerebral cortex, result in words” value is “no increase”. Further, in series [8], the “increase of local cerebral blood flow at the amygdaloid nucleus” value is reported as “about 15%”.

What is called solubility is the dissolved amount per volume that the medium holds. As usually defined, the LD50 is the dose at which mortality reaches 50%. A higher LD50 goes with lower toxicity.
